# Measured values as given in BindingDB's records for doi:10.1016/j.chembiol.2010.05.008 (Kyowa Hakko Kogyo, 2010).
# pIC50: −log10 of the molar value.
# Target: Nicotinamide phosphoribosyltransferase (Homo sapiens, UniProt P43490)
# Experiment: In Vitro Inhibition Assay
# Chain of Nicotinamide phosphoribosyltransferase (P43490 whole entry): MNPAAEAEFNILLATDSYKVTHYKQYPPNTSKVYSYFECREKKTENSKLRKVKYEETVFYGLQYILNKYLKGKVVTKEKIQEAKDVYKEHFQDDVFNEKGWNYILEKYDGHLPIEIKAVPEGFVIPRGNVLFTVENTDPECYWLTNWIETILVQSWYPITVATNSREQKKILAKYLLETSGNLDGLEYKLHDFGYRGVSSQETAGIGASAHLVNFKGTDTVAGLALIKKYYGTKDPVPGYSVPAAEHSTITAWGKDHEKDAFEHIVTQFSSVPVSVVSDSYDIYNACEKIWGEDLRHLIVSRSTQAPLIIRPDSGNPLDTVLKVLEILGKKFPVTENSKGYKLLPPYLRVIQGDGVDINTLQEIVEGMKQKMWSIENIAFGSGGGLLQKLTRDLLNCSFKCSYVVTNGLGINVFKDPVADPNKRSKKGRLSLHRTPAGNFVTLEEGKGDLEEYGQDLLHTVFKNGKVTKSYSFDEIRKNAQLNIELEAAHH
row,pIC50,SMILES
1,9.64,C#CCN(Cc1cc2c(=O)n(C)c(CN3CCN(C)CC3)nc2cc1Cl)c1ccc(C(=O)NCc2cccnc2)cc1
2,7.13,C#CCN(Cc1cc2c(=O)n(C)c(CN3CCN(C)CC3)nc2cc1Cl)c1ccc(C(=O)NCc2ccccn2)cc1 [MPI-0482593]
3,7.54,C#CCN(Cc1cc2c(=O)n(C)c(CN3CCN(CCN)CC3)nc2cc1Cl)c1ccc(C(=O)NCc2ccccn2)cc1 [MPI-0482594]
